Test results from ChEMBL document CHEMBL1201861, “Genomics of Drug Sensitity in Cancer screening data, Wellcome Trust Sanger Institute”.

test system: COLO-800; assay: cells; type: functional, cell-based, Homo sapiens; conditions: Homo sapiens, COLO-800;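 further: growth inhibition of COLO-800 cells, read out with a cell viability assay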
Description: SANGER: Inhibition of human COLO-800 cell growth in a cell viability assay.

SMILES	IC50 [µM]
COc1cc(N2CCN(C)CC2)ccc1Nc1ncc2c(n1)N(C)c1ccccc1C(=O)N2C	> 8

test system: COLO-829; assay: cells; type: functional, cell-based, Homo sapiens; conditions: Homo sapiens, COLO-829
Description: SANGER: Inhibition of human COLO-829 cell growth in a cell viability assay.

SMILES	IC50 [µM]
COc1cc(N2CCN(C)CC2)ccc1Nc1ncc2c(n1)N(C)c1ccccc1C(=O)N2C	> 8

test system: CP66-MEL; assay: cells; type: functional, cell-based, Homo sapiens; conditions: Homo sapiens, CP66-MEL;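 further: growth inhibition of CP66-MEL cells determined in a cell viability assay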
Description: SANGER: Inhibition of human CP66-MEL cell growth in a cell viability assay.

SMILES	IC50 [µM]
COc1cc(N2CCN(C)CC2)ccc1Nc1ncc2c(n1)N(C)c1ccccc1C(=O)N2C	> 8

test system: CTV-1; assay: cells; type: functional, cell-based, Homo sapiens; conditions: Homo sapiens, CTV-1;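 further: growth inhibition of the cell line, read out with a cell viability assay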
Description: SANGER: Inhibition of human CTV-1 cell growth in a cell viability assay.

SMILES	IC50 [µM]
COc1cc(N2CCN(C)CC2)ccc1Nc1ncc2c(n1)N(C)c1ccccc1C(=O)N2C	> 8

test system: DSH1; assay: cells; type: functional, cell-based, Homo sapiens; conditions: Homo sapiens, DSH1;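 further: growth inhibition of human DSH1 cells, measured with a cell viability readout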
Description: SANGER: Inhibition of human DSH1 cell growth in a cell viability assay.

SMILES	IC50 [µM]
COc1cc(N2CCN(C)CC2)ccc1Nc1ncc2c(n1)N(C)c1ccccc1C(=O)N2C	> 8

test system: EC-GI-10; assay: cells; type: functional, cell-based, Homo sapiens; conditions: Homo sapiens, EC-GI-10
Description: SANGER: Inhibition of human EC-GI-10 cell growth in a cell viability assay.

SMILES	IC50 [µM]
COc1cc(N2CCN(C)CC2)ccc1Nc1ncc2c(n1)N(C)c1ccccc1C(=O)N2C	> 8

test system: ES1; assay: cells; type: functional, cell-based, Homo sapiens; conditions: Homo sapiens, ES1;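 further: growth inhibition of ES1 cells, read out with a cell viability assay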
Description: SANGER: Inhibition of human ES1 cell growth in a cell viability assay.

SMILES	IC50 [µM]
COc1cc(N2CCN(C)CC2)ccc1Nc1ncc2c(n1)N(C)c1ccccc1C(=O)N2C	> 8

test system: ES7; assay: cells; type: functional, cell-based, Homo sapiens; conditions: Homo sapiens, ES7;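 further: growth inhibition of cultured human ES7 cells, read out as cell viability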
Description: SANGER: Inhibition of human ES7 cell growth in a cell viability assay.

SMILES	IC50 [µM]
COc1cc(N2CCN(C)CC2)ccc1Nc1ncc2c(n1)N(C)c1ccccc1C(=O)N2C	> 8

test system: EW-18; assay: cells; type: functional, cell-based, Homo sapiens; conditions: Homo sapiens, EW-18;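 further: growth inhibition of EW-18 cells, read out by a cell viability assay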
Description: SANGER: Inhibition of human EW-18 cell growth in a cell viability assay.

SMILES	IC50 [µM]
COc1cc(N2CCN(C)CC2)ccc1Nc1ncc2c(n1)N(C)c1ccccc1C(=O)N2C	> 8

test system: EOL1; assay: cells; type: functional, cell-based, Homo sapiens; conditions: Homo sapiens, EOL1;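 further: growth inhibition of EoL-1 cells, read out by a cell viability assay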
Description: SANGER: Inhibition of human EoL-1-cell cell growth in a cell viability assay.

SMILES	IC50 [µM]
COc1cc(N2CCN(C)CC2)ccc1Nc1ncc2c(n1)N(C)c1ccccc1C(=O)N2C	> 8

test system: GB-1; assay: cells; type: functional, cell-based, Homo sapiens; conditions: Homo sapiens, GB-1;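 further: growth of GB-1 cells judged by a viability assay, IC50 marks the concentration inhibiting growth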
Description: SANGER: Inhibition of human GB-1 cell growth in a cell viability assay.

SMILES	IC50 [µM]
COc1cc(N2CCN(C)CC2)ccc1Nc1ncc2c(n1)N(C)c1ccccc1C(=O)N2C	> 8

test system: GT3TKB; assay: cells; type: functional, cell-based, Homo sapiens; conditions: Homo sapiens, GT3TKB;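 further: growth inhibition of the cell line, read out with a cell viability assay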
Description: SANGER: Inhibition of human GT3TKB cell growth in a cell viability assay.

SMILES	IC50 [µM]
COc1cc(N2CCN(C)CC2)ccc1Nc1ncc2c(n1)N(C)c1ccccc1C(=O)N2C	> 8

test system: HDLM-2; assay: cells; type: functional, cell-based, Homo sapiens; conditions: Homo sapiens, HDLM-2;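 further: cell viability assay measuring suppression of HDLM-2 proliferation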
Description: SANGER: Inhibition of human HDLM-2 cell growth in a cell viability assay.

SMILES	IC50 [µM]
COc1cc(N2CCN(C)CC2)ccc1Nc1ncc2c(n1)N(C)c1ccccc1C(=O)N2C	> 8

test system: KMOE-2; assay: cells; type: functional, cell-based, Homo sapiens; conditions: Homo sapiens, KMOE-2;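 further: growth inhibition of human KMOE-2 cells, read out with a cell viability assay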
Description: SANGER: Inhibition of human KMOE-2 cell growth in a cell viability assay.

SMILES	IC50 [µM]
COc1cc(N2CCN(C)CC2)ccc1Nc1ncc2c(n1)N(C)c1ccccc1C(=O)N2C	> 8

test system: KNS-81-FD; assay: cells; type: functional, cell-based, Homo sapiens; conditions: Homo sapiens, KNS-81-FD;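 further: growth inhibition of KNS-81-FD cells, read out with a cell viability assay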
Description: SANGER: Inhibition of human KNS-81-FD cell growth in a cell viability assay.

SMILES	IC50 [µM]
COc1cc(N2CCN(C)CC2)ccc1Nc1ncc2c(n1)N(C)c1ccccc1C(=O)N2C	> 8

test system: LAN-6; assay: cells; type: functional, cell-based, Homo sapiens; conditions: Homo sapiens, LAN-6;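 further: growth inhibition of LAN-6 cells, determined with a cell viability assay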
Description: SANGER: Inhibition of human LAN-6 cell growth in a cell viability assay.

SMILES	IC50 [µM]
COc1cc(N2CCN(C)CC2)ccc1Nc1ncc2c(n1)N(C)c1ccccc1C(=O)N2C	7.97

test system: LB1047-RCC; assay: cells; type: functional, cell-based, Homo sapiens; conditions: Homo sapiens, LB1047-RCC;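 further: inhibition of cell growth, determined with a cell viability assay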
Description: SANGER: Inhibition of human LB1047-RCC cell growth in a cell viability assay.

SMILES	IC50 [µM]
COc1cc(N2CCN(C)CC2)ccc1Nc1ncc2c(n1)N(C)c1ccccc1C(=O)N2C	> 8

test system: LS-123; assay: cells; type: functional, cell-based, Homo sapiens; conditions: Homo sapiens, LS-123
Description: SANGER: Inhibition of human LS-123 cell growth in a cell viability assay.

SMILES	IC50 [µM]
COc1cc(N2CCN(C)CC2)ccc1Nc1ncc2c(n1)N(C)c1ccccc1C(=O)N2C	> 8

test system: LXF-289 cell line; assay: cells; type: functional, cell-based, Homo sapiens; conditions: Homo sapiens, LXF-289
Description: SANGER: Inhibition of human LXF-289 cell growth in a cell viability assay.

SMILES	IC50 [µM]
COc1cc(N2CCN(C)CC2)ccc1Nc1ncc2c(n1)N(C)c1ccccc1C(=O)N2C	> 8

test system: MHH-NB-11; assay: cells; type: functional, cell-based, Homo sapiens; conditions: Homo sapiens, MHH-NB-11;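 further: growth inhibition of human MHH-NB-11 cells, read out by a cell viability assay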
Description: SANGER: Inhibition of human MHH-NB-11 cell growth in a cell viability assay.

SMILES	IC50 [µM]
COc1cc(N2CCN(C)CC2)ccc1Nc1ncc2c(n1)N(C)c1ccccc1C(=O)N2C	> 8

test system: MHH-PREB-1; assay: cells; type: functional, cell-based, Homo sapiens; conditions: Homo sapiens, MHH-PREB-1;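 further: cell viability assay measuring inhibition of proliferation of human MHH-PREB-1 cells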
Description: SANGER: Inhibition of human MHH-PREB-1 cell growth in a cell viability assay.

SMILES	IC50 [µM]
COc1cc(N2CCN(C)CC2)ccc1Nc1ncc2c(n1)N(C)c1ccccc1C(=O)N2C	3.84

test system: ML-2; assay: cells; type: functional, cell-based, Homo sapiens; conditions: Homo sapiens, ML-2;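 further: growth inhibition of ML-2 cells, measured with a cell viability readout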
Description: SANGER: Inhibition of human ML-2 cell growth in a cell viability assay.

SMILES	IC50 [µM]
COc1cc(N2CCN(C)CC2)ccc1Nc1ncc2c(n1)N(C)c1ccccc1C(=O)N2C	7.33

test system: NB69; assay: cells; type: functional, cell-based, Homo sapiens; conditions: Homo sapiens, NB69;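 further: growth inhibition of NB69 cells, determined by a cell viability assay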
Description: SANGER: Inhibition of human NB69 cell growth in a cell viability assay.

SMILES	IC50 [µM]
COc1cc(N2CCN(C)CC2)ccc1Nc1ncc2c(n1)N(C)c1ccccc1C(=O)N2C	7.85

test system: NCI-H1648; assay: cells; type: functional, cell-based, Homo sapiens; conditions: Homo sapiens, NCI-H1648;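 further: cell viability assay measuring inhibition of NCI-H1648 cell growth, from the Sanger screening data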
Description: SANGER: Inhibition of human NCI-H1648 cell growth in a cell viability assay.

SMILES	IC50 [µM]
COc1cc(N2CCN(C)CC2)ccc1Nc1ncc2c(n1)N(C)c1ccccc1C(=O)N2C	> 8

test system: NCI-H510A; assay: cells; type: functional, cell-based, Homo sapiens; conditions: Homo sapiens, NCI-H510A;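 further: growth inhibition of NCI-H510A cells, read out with a cell viability assay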
Description: SANGER: Inhibition of human NCI-H510A cell growth in a cell viability assay.

SMILES	IC50 [µM]
COc1cc(N2CCN(C)CC2)ccc1Nc1ncc2c(n1)N(C)c1ccccc1C(=O)N2C	> 8

test system: SNU1; assay: cells; type: functional, cell-based, Homo sapiens; conditions: Homo sapiens, SNU1;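 further: growth inhibition of human NCI-SNU-1 cells, measured with a cell viability assay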
Description: SANGER: Inhibition of human NCI-SNU-1 cell growth in a cell viability assay.

SMILES	IC50 [µM]
COc1cc(N2CCN(C)CC2)ccc1Nc1ncc2c(n1)N(C)c1ccccc1C(=O)N2C	> 8

test system: NKM-1; assay: cells; type: functional, cell-based, Homo sapiens; conditions: Homo sapiens, NKM-1;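 further: growth inhibition of NKM-1 cells, read out with a cell viability assay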
Description: SANGER: Inhibition of human NKM-1 cell growth in a cell viability assay.

SMILES	IC50 [µM]
COc1cc(N2CCN(C)CC2)ccc1Nc1ncc2c(n1)N(C)c1ccccc1C(=O)N2C	> 8

test system: ONS-76; assay: cells; type: functional, cell-based, Homo sapiens; conditions: Homo sapiens, ONS-76;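 further: growth inhibition of human ONS-76 cells, read out with a cell viability assay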
Description: SANGER: Inhibition of human ONS-76 cell growth in a cell viability assay.

SMILES	IC50 [µM]
COc1cc(N2CCN(C)CC2)ccc1Nc1ncc2c(n1)N(C)c1ccccc1C(=O)N2C	> 8

test system: RPMI-8866; assay: cells; type: functional, cell-based, Homo sapiens; conditions: Homo sapiens, RPMI-8866
Description: SANGER: Inhibition of human RPMI-8866 cell growth in a cell viability assay.

SMILES	IC50 [µM]
COc1cc(N2CCN(C)CC2)ccc1Nc1ncc2c(n1)N(C)c1ccccc1C(=O)N2C	> 8

test system: SCC-15; assay: cells; type: functional, cell-based, Homo sapiens; conditions: Homo sapiens, SCC-15;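 further: growth inhibition of SCC-15 cells, read out with a cell viability assay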
Description: SANGER: Inhibition of human SCC-15 cell growth in a cell viability assay.

SMILES	IC50 [µM]
COc1cc(N2CCN(C)CC2)ccc1Nc1ncc2c(n1)N(C)c1ccccc1C(=O)N2C	> 8

test system: SF-126; assay: cells; type: functional, cell-based, Homo sapiens; conditions: Homo sapiens, SF-126;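 further: growth inhibition of human SF126 cells, read out with a cell viability assay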
Description: SANGER: Inhibition of human SF126 cell growth in a cell viability assay.

SMILES	IC50 [µM]
COc1cc(N2CCN(C)CC2)ccc1Nc1ncc2c(n1)N(C)c1ccccc1C(=O)N2C	> 8

test system: SK-UT-1; assay: cells; type: functional, cell-based, Homo sapiens; conditions: Homo sapiens, SK-UT-1;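 further: growth inhibition of SK-UT-1 cells, measured by a cell viability assay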
Description: SANGER: Inhibition of human SK-UT-1 cell growth in a cell viability assay.

SMILES	IC50 [µM]
COc1cc(N2CCN(C)CC2)ccc1Nc1ncc2c(n1)N(C)c1ccccc1C(=O)N2C	> 8

test system: SNB-75; assay: cells; type: functional, cell-based, Homo sapiens; conditions: Homo sapiens, SNB-75;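 further: cell viability assay measuring growth inhibition of human SNB-75 cells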
Description: SANGER: Inhibition of human SNB75 cell growth in a cell viability assay.

SMILES	IC50 [µM]
COc1cc(N2CCN(C)CC2)ccc1Nc1ncc2c(n1)N(C)c1ccccc1C(=O)N2C	7.34

test system: SW872; assay: cells; type: functional, cell-based, Homo sapiens; conditions: Homo sapiens, SW872;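 further: growth inhibition of SW872 cells, read out by a viability assay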
Description: SANGER: Inhibition of human SW872 cell growth in a cell viability assay.

SMILES	IC50 [µM]
COc1cc(N2CCN(C)CC2)ccc1Nc1ncc2c(n1)N(C)c1ccccc1C(=O)N2C	> 8

test system: 697; assay: cells; type: functional, cell-based, Homo sapiens; conditions: Homo sapiens
Description: SANGER: Inhibition of human 697 cell growth in a cell viability assay.

SMILES	IC50 [µM]
COc1cc(N2CCN(C)CC2)ccc1Nc1ncc2c(n1)N(C)c1ccccc1C(=O)N2C	0.654

test system: A253 cell line; assay: cells; type: functional, cell-based, Homo sapiens; conditions: Homo sapiens, A253;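 further: growth inhibition of A253 cells, read out with a cell viability assay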
Description: SANGER: Inhibition of human A253 cell growth in a cell viability assay.

SMILES	IC50 [µM]
COc1cc(N2CCN(C)CC2)ccc1Nc1ncc2c(n1)N(C)c1ccccc1C(=O)N2C	> 8

test system: BB49-HNC; assay: cells; type: functional, cell-based, Homo sapiens; conditions: Homo sapiens, BB49-HNC;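 further: cell viability assay read-out, reported as inhibition of BB49-HNC cell growth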
Description: SANGER: Inhibition of human BB49-HNC cell growth in a cell viability assay.

SMILES	IC50 [µM]
COc1cc(N2CCN(C)CC2)ccc1Nc1ncc2c(n1)N(C)c1ccccc1C(=O)N2C	> 8

test system: TE-12; assay: cells; type: functional, cell-based, Homo sapiens; conditions: Homo sapiens, TE-12;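 further: growth inhibition of TE-12 cells, read out by a cell viability assay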
Description: SANGER: Inhibition of human TE-12 cell growth in a cell viability assay.

SMILES	IC50 [µM]
COc1cc(N2CCN(C)CC2)ccc1Nc1ncc2c(n1)N(C)c1ccccc1C(=O)N2C	5.5

test system: TE-8; assay: cells; type: functional, cell-based, Homo sapiens; conditions: Homo sapiens, TE-8;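 further: growth inhibition of TE-8 cells, measured with a cell viability readout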
Description: SANGER: Inhibition of human TE-8 cell growth in a cell viability assay.

SMILES	IC50 [µM]
COc1cc(N2CCN(C)CC2)ccc1Nc1ncc2c(n1)N(C)c1ccccc1C(=O)N2C	> 8

test system: TGBC1TKB; assay: cells; type: functional, cell-based, Homo sapiens; conditions: Homo sapiens, TGBC1TKB;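 further: growth inhibition of TGBC1TKB cells, read out by a cell viability assay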
Description: SANGER: Inhibition of human TGBC1TKB cell growth in a cell viability assay.

SMILES	IC50 [µM]
COc1cc(N2CCN(C)CC2)ccc1Nc1ncc2c(n1)N(C)c1ccccc1C(=O)N2C	> 8

test system: U-266; assay: cells; type: functional, cell-based, Homo sapiens; conditions: Homo sapiens, U-266
Description: SANGER: Inhibition of human U-266 cell growth in a cell viability assay.

SMILES	IC50 [µM]
COc1cc(N2CCN(C)CC2)ccc1Nc1ncc2c(n1)N(C)c1ccccc1C(=O)N2C	> 8

test system: VA-ES-BJ; assay: cells; type: functional, cell-based, Homo sapiens; conditions: Homo sapiens, VA-ES-BJ;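 further: growth inhibition of the VA-ES-BJ cell line, read out by a cell viability assay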
Description: SANGER: Inhibition of human VA-ES-BJ cell growth in a cell viability assay.

SMILES	IC50 [µM]
COc1cc(N2CCN(C)CC2)ccc1Nc1ncc2c(n1)N(C)c1ccccc1C(=O)N2C	> 8

test system: no-11; assay: cells; type: functional, cell-based, Homo sapiens; conditions: Homo sapiens;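 further: growth inhibition of human NO-11 cells, read out with a cell viability assay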
Description: SANGER: Inhibition of human no-11 cell growth in a cell viability assay.

SMILES	IC50 [µM]
COc1cc(N2CCN(C)CC2)ccc1Nc1ncc2c(n1)N(C)c1ccccc1C(=O)N2C	> 8

test system: CCRF-CEM; assay: cells; type: functional, cell-based, Homo sapiens; conditions: Homo sapiens, CCRF-CEM;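 further: inhibition of CCRF-CEM cell growth, measured by a cell viability assay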
Description: SANGER: Inhibition of human CCRF-CEM cell growth in a cell viability assay.

SMILES	IC50 [µM]
COc1cc(N2CCN(C)CC2)ccc1Nc1ncc2c(n1)N(C)c1ccccc1C(=O)N2C	> 8

test system: COLO-668; assay: cells; type: functional, cell-based, Homo sapiens; conditions: Homo sapiens, COLO-668
Description: SANGER: Inhibition of human COLO-668 cell growth in a cell viability assay.

SMILES	IC50 [µM]
COc1cc(N2CCN(C)CC2)ccc1Nc1ncc2c(n1)N(C)c1ccccc1C(=O)N2C	> 8

test system: COLO-684; assay: cells; type: functional, cell-based, Homo sapiens; conditions: Homo sapiens, COLO-684
Description: SANGER: Inhibition of human COLO-684 cell growth in a cell viability assay.

SMILES	IC50 [µM]
COc1cc(N2CCN(C)CC2)ccc1Nc1ncc2c(n1)N(C)c1ccccc1C(=O)N2C	> 8
